Earlier results, collected in patent US11707464B2, “Methods of treating heavy menstrual bleeding” (AbbVie Inc., priority 2013, dated 2023).

Test system: women with symptomatic uterine fibroids
Details: 185 women with HMB associated with uterine fibroids; through 6 months; cited from earlier work

CCNC(=O)[C@@H]1CCCN1C(=O)[C@H](CCCN=C(N)N)NC(=O)[C@H](CC(C)C)NC(=O)[C@@H](Cc1c[nH]c2ccccc12)NC(=O)[C@H](Cc1ccc(O)cc1)NC(=O)[C@H](CO)NC(=O)[C@H](Cc1c[nH]c2ccccc12)NC(=O)[C@H](Cc1cnc[nH]1)NC(=O)[C@@H]1CCC(=O)N1 [deslorelin]
efficacy (reduction in uterine bleeding and volume) when dosed with low-dose transdermal E2: maintained
